The results in this text go back to PMC10682503, “Structural and functional basis of inositol hexaphosphate stimulation of NHEJ through stabilization of Ku-XLF interaction” (Nucleic Acids Research, 2023).

Read-outs that look alike come from different tables or passages of the source.

Assay type in all cases: binding
The target of assay [1] is T1, Ku-2E (Ku70-K357E, Ku80-K481E) (Homo sapiens, UniProt P12956+P13010, K357E/K481E).
T1 construct: 10x His-tag with TEV site (same vector as KuFL) (N); made in house; host or cells: Sf21 insect cells
In words: ITC, Ku-2E mutant with IP6. The protocol: Purification of Ku full-length (KuFL) for cryo-EM experiments was carried out as described previously ([5]). Expression and purification of KuFL for biophysical experiments was carried out as described previously ([20]). The full-length human Ku heterodimer subunits (Ku70 1–609, Ku80 1–732) were cloned into a Multibac vector ([21]). The construct has a 10× His-tag and a TEV site on the N-terminus of Ku80 and no-tag on Ku70. Protein production was initiated in Sf21 cells by infection with the baculovirus stock at MOI of 5 × 10^−3 and cells were collected 5–6 days after the infection (3–4 days after the proliferation arrest). Cells were sonicated and the supernatant was incubated with Benzonase (300 units for 30 min at 4°C). The Ku heterodimer was purified on a NiNTA-Agarose affinity column (Protino, Macherey Nagel) with a 1 M NaCl wash step to remove DNA excess. The eluted Ku was then bound onto an anion exchange column (Resource Q, Cytiva) equilibrated in 20 mM Tris pH 8.0, 50 mM NaCl, 50 mM KCl, 10 mM β-mercaptoethanol and eluted with a salt gradient. […]
Calorimetry. Interactions between KuFL and inositol phosphates (IPs) (IP6 and IP6 analogues) were determined by Isothermal Titration Calorimetry (ITC) using a VP-ITC calorimeter (Malvern). […] The free energy of binding (ΔG) and the entropy (ΔS) were determined using the classical thermodynamic formula, ΔG = - RT ln(Ka) and ΔG = ΔH - TΔS. […]

In assay [2] the target is T2, KuFL (full-length human Ku70–Ku80 heterodimer) (Homo sapiens, UniProt P12956+P13010).
T2 construct: The full-length human Ku heterodimer subunits (Ku70 1–609, Ku80 1–732); 10x His-tag with TEV site (N); made in house; host or cells: Sf21 insect cells (baculovirus, MultiBac)
In words: Isothermal titration calorimetry (ITC), KuFL with IP6 and IP6 analogues. The following applies: 25 °C, Ku 4 µM in cell, IPs 40 µM in syringe. The protocol:
Purification of Ku full-length (KuFL) for cryo-EM experiments was carried out as described previously ([5]). Expression and purification of KuFL for biophysical experiments was carried out as described previously ([20]). The full-length human Ku heterodimer subunits (Ku70 1–609, Ku80 1–732) were cloned into a Multibac vector ([21]). The construct has a 10× His-tag and a TEV site on the N-terminus of Ku80 and no-tag on Ku70. Protein production was initiated in Sf21 cells by infection with the baculovirus stock at MOI of 5 × 10^−3 and cells were collected 5–6 days after the infection (3–4 days after the proliferation arrest). Cells were sonicated and the supernatant was incubated with Benzonase (300 units for 30 min at 4°C). The Ku heterodimer was purified on a NiNTA-Agarose affinity column (Protino, Macherey Nagel) with a 1 M NaCl wash step to remove DNA excess. The eluted Ku was then bound onto an anion exchange column (Resource Q, Cytiva) equilibrated in 20 mM Tris pH 8.0, 50 mM NaCl, 50 mM KCl, 10 mM β-mercaptoethanol and eluted with a salt gradient. The final yield was about 20 mg of purified heterodimer per litre of culture. KuΔC constructs, heterodimer deleted of its C-terminal region (Ku70 1–544, Ku80 1–551) for X-ray crystallography, Ku mutants, Ku-2E (Ku with mutation in K357E on Ku70 and K481E on Ku80) and Ku-4E (Ku with mutations in H359E and H360E on Ku70 and K413E and H414E on Ku80) were cloned in the same vector and produced following the same protocol as KuFL expressed in Sf21 insect cells.
Calorimetry. Interactions between KuFL and inositol phosphates (IPs) (IP6 and IP6 analogues) were determined by Isothermal Titration Calorimetry (ITC) using a VP-ITC calorimeter (Malvern). Prior to measurements, all solutions were degassed under vacuum. The reaction cell of the ITC (volume 1.8 mL) was loaded with Ku heterodimers at 4 µM concentration. […] The free energy of binding (ΔG) and the entropy (ΔS) were determined using the classical thermodynamic formula, ΔG = - RT ln(Ka) and ΔG = ΔH - TΔS. […]
Background: ITC needs no label: the signal is the heat of the interaction.

The target of the next assay is T3, Ku-XLF interaction (Homo sapiens, UniProt P12956+P13010).
T3 construct: The full-length human Ku heterodimer subunits (Ku70 1–609, Ku80 1–732); 10x His-tag with TEV site (N); made in house; host or cells: Sf21 insect cells (Ku)
Nature of the assay: switchSENSE analysis of Ku-DNA interaction with XLF. Particulars: IP6 20 μM; for Kd: biphasic fit. As for the experimental part: (§1) switchSENSE: A DRX 2400 instrument and a multi-purpose 48bp chip were used for switchSENSE measurements (both Dynamic Biosensors GmbH; Planegg, Germany). The sample and running buffer was in 10 mM Tris HCl pH 7.4, 140 mM NaCl, 50 µM EDTA, 0.05 % Tween-20, 50µM EDTA. Kinetics experiments of Ku interaction with DNA in presence or absence of IP6 were performed on a DRX2 instrument. Complementary DNA to the strand immobilized on the chip was first hybridized on the measurement electrodes. The association and dissociation between Ku and DNA, with or without IP6 (3 µM) at Ku concentration (0-15-30-60-120-240 nM were measured in a flow rate of 200 µL/min. Kinetics experiments of Ku interaction with DNA and XLF with or without DNA were performed on a Helix instrument. The sample and running buffer was in 10 mM Tris HCl pH 7.4, 140 mM NaCl, 50 µM EDTA, 0.05 % Tween-20 with or without IP6 (20 µM). The flow rate of all conditions are at 500 µL/min.
A complementary DNA is hybridized onto an anchor DNA on the measurement chip in order to obtain a 96 base paired DNA with nick. KuFL is then captured under saturation condition (SI figure 13a and 13c). Association and dissociation between XLF and Ku-DNA is then monitored using 1, 2 or 8 µM of XLF, with or without IP6 in working buffer (SI figure 13c and d) . The fit is realised using biphasic model from BDS software.

The next assay deals with T4, KuFL-DNA interaction (Homo sapiens, UniProt P12956+P13010).
T4 construct: The full-length human Ku heterodimer subunits (Ku70 1–609, Ku80 1–732); 10x His-tag with TEV site (N); made in house; host or cells: Sf21 insect cells (baculovirus, MultiBac)
In words: switchSENSE kinetics of KuFL interaction with 48bp DNA. Particulars: IP6 3 μM. As for the experimental part:
as §1

T3 sequence (P12956 whole entry): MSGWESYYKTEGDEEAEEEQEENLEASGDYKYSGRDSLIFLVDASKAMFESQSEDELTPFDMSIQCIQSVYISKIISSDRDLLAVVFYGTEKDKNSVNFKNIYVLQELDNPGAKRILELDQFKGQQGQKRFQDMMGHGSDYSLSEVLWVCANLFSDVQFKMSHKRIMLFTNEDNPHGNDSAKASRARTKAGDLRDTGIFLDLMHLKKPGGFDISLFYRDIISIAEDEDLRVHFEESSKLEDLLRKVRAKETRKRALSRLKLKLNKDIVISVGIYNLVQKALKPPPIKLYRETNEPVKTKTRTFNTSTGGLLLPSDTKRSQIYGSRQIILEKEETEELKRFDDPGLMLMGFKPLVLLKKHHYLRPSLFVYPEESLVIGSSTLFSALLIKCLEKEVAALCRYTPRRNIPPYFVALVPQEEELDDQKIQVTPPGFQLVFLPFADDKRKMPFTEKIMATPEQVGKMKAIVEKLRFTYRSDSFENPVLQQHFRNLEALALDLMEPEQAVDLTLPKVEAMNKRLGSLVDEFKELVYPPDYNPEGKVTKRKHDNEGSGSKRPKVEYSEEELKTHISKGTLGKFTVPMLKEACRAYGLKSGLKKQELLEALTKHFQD
T3 sequence (P13010 whole entry): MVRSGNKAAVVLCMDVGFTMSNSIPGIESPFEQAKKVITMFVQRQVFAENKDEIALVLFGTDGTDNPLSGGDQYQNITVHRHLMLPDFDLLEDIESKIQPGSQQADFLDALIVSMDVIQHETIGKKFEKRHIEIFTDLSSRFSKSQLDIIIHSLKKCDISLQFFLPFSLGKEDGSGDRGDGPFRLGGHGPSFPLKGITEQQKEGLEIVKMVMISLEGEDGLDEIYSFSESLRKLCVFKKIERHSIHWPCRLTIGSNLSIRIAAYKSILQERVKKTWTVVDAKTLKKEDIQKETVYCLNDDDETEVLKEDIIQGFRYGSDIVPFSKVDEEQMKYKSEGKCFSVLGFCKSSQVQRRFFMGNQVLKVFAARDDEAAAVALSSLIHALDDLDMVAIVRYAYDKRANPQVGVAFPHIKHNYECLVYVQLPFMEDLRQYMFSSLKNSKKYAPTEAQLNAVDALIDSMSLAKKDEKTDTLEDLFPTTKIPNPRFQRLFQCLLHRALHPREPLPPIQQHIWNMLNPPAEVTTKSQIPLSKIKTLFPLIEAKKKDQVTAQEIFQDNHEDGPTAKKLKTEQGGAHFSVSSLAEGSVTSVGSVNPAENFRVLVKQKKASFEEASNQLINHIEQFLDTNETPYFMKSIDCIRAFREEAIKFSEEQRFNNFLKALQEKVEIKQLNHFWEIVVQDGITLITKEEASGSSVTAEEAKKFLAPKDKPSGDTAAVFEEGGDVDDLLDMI
T3 sequence (Q9H9Q4 whole entry partner): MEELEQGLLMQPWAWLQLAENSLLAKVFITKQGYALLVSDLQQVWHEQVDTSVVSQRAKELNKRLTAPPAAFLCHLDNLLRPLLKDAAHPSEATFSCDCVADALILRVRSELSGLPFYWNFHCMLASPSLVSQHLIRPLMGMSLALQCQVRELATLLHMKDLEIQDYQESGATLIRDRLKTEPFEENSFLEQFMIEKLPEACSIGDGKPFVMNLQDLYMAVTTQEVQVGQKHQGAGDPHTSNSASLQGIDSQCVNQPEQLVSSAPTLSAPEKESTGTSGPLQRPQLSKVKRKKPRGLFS
T4 sequence (P12956 whole entry): as the sequence (P12956 whole entry) above
T4 sequence (P13010 whole entry): as the sequence (P13010 whole entry) above
T2 sequence (P12956 whole entry): as the sequence (P12956 whole entry) above
T2 sequence (P13010 whole entry): as the sequence (P13010 whole entry) above
T1 sequence (P12956 whole entry K357E): as the sequence (P12956 whole entry) above, with K357E counted along it
T1 sequence (P13010 whole entry K481E): as the sequence (P13010 whole entry) above, with K481E counted along it

As for `O=P(O)(O)O[C@H]1[C@H](OP(=O)(O)O)[C@@H](OP(=O)(O)O)[C@H](OP(=O)(O)O)[C@@H](OP(=O)(O)O)[C@H]1OP(=O)(O)O` [IP6, inositol hexaphosphate], the “interaction with IP6 as measured by ITC” value in assay [1] was “no interaction”. The Kd in assay [2] came to 3.5 ± 2.9 nM; on Ku-XLF interaction (without IP6 1.9 ± 0.8, read-out: KD2, apparent affinity between Ku and XLF), 130 ± 9 nM; at Ku-XLF interaction (without IP6 3.6 ± 0.6, read-out: KD1, apparent affinity between Ku and XLF) it was 1200 ± 150 nM. Further, at Ku-XLF interaction, the “KD1 stronger with IP6 than in absence of IP6” value turned out to be 3 fold. At Ku-XLF interaction, the “KD2 stronger with IP6 than in absence of IP6” value came out at 14 fold. In addition, the “effect on Ku-DNA interaction” value at KuFL-DNA interaction is “slight stimulation of the interaction”.
